Assay results reported in patent publication US20240226098A1, “COMPOUNDS AND METHODS FOR MODULATING SPLICING” (REMIX THERAPEUTICS INC., priority 2020, published 2024).

Legend:
Type in all cases: cell-based
[1] = test system: SMN2 CJ mRNA; test: Gene panel canonical junction qPCR assay: decrease in SMN2 CJ mRNA; settings: protocol as for Table 2, read-out: SMN2 (IC50, decrease in CJ mRNA levels)
Summary of the method: (§1)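 A673 or K562 cells were treated 24 h at 37 °C with an 11-point 3-fold dilution series (top dose 10 uM final, DMSO ≤0.25%). Lysates went to RT-qPCR for the canonical exon-exon junction transcript, normalized to GAPDH, GUSB or PPIA. Levels were taken as ΔΔCt versus DMSO control and converted to RQ via 2^(−ΔΔCt).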

[2] = test system: HTT CJ mRNA; test: Gene panel canonical junction qPCR assay: decrease in HTT CJ mRNA; settings: protocol as for Table 2, read-out: HTT (IC50, decrease in CJ mRNA levels)
Summary of the method: as §1

[3] = test system: HTT mRNA, canonical junction (CJ); test: Splicing assay (RT-qPCR): decrease in HTT canonical junction (CJ) mRNA; settings: A673 or K562 cell line, 24 hours treatment, top dose 10 uM; concentration having 50% response in CJ decrease
Summary of the method: (§2)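 A673 (DMEM, 10% FBS) or K562 (IMDM, 10% FBS) cells treated 24 h at 37 °C with 11-point 3-fold dilutions, top 10 uM, ≤0.25% DMSO. Lysates analysed by one-step RT-qPCR for HTT CJ and AJ isoforms. Normalised to PPIA (A673) or GAPDH/GUSB (K562).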

[4] = test system: HTT mRNA, alternative junction (AJ); test: Splicing assay (RT-qPCR): increase in HTT alternative junction (AJ) mRNA; settings: A673 or K562 cell line, 24 hours treatment, top dose 10 uM; concentration having 50% response in AJ increase
Summary of the method: as §2

[5] = test system: Target C CJ mRNA; test: Gene panel canonical junction qPCR assay: decrease in Target C CJ mRNA; settings: protocol as for Table 2, read-out: Target C (IC50, decrease in CJ mRNA levels)
Procedure: Compounds described herein were used to modulate RNA transcript abundance in cells. The expression of a target mRNA was measured by detecting the formation of an exon-exon junction in the canonical transcript (CJ). A compound mediated exon-inclusion event was detected by observing an increase in formation of a new junction with an alternative exon (AJ). Real-time qPCR assays were used to detect these splicing switches and interrogate the potency of various compounds towards different target genes. A high-throughput real time quantitative PCR (RT-qPCR) assay was developed to measure these two isoforms of the mRNA (CJ and AJ) for an exemplary gene, HTT, together with a control housekeeping gene, GAPDH or GUSB or PPIA, used for normalization. Briefly, the A673 or K562 cell line was treated with various compounds described herein (e.g., compounds of Formula (I)). After treatment, the levels of the HTT mRNA targets were determined from each sample of cell lysate by cDNA synthesis followed by qPCR.
The A673 cell line was cultured in DMEM with 10% FBS. Cells were diluted with full growth media and plated in a 96-well plate (15,000 cells in 100 ul media per well). The plate was incubated at 37° C. with 5% CO2 for 24 hours to allow cells to adhere. An 11-point 3-fold serial dilution of the compounds was made in DMSO then diluted in media in an intermediate plate. Compounds were transferred from the intermediate plate to the cell plate with the top dose at a final concentration of 10 uM in the well. Final DMSO concentration was kept at or below 0.25%. The cell plate was returned to the incubator at 37° C. with 5% CO2 for an additional 24 hours.
The K562 cell line was cultured in IMDM with 10% FBS. For K562, cells were diluted with full growth media and plated in either a 96-well plate (50,000 cells in 50 uL media per well) or a 384-well plate (8,000-40,000 cells in 45 uL media per well). An 11-point 3-fold serial dilution of the compounds were made in DMSO then diluted in media in an intermediate plate. Compound was transferred from the intermediate plate to the cell plate with the top dose at a final concentration of 10 uM in the well. Final DMSO concentration was kept at or below 0.25%. Final volume was 100 uL for 96-well plate and 50 uL for 384-well plate. The cell plate was then placed in an incubator at 37° C. with 5% CO2 for 24 hours.
The cells were then gently washed with 50 uL-100 uL cold PBS before proceeding to addition of lysis buffer. 30 uL-50 uL of room temperature lysis buffer with DNAse I (and optionally RNAsin) was added to each well. Cells were shaken/mixed thoroughly at room temperature for 5-10 minutes for lysis to take place and then 3 uL-5 uL of room temperature stop solution was added and wells were shaken/mixed again. After 2-5 minutes, the cell lysate plate was transferred to ice for RT-qPCR reaction setup. The lysates could also be frozen at −80° C. for later use.
In some cases, a direct lysis buffer was used. An appropriate volume of 3× lysis buffer (10 mM Tris, 150 mM NaCl, 1.5%-2.5% Igepal and 0.1-1 U/uL RNAsin, pH 7.4) was directly added to either K562 or A673 cells in media and mixed by pipetting 3 times. The plates were then incubated at room temperature with shaking/rocking for 20-50 minutes to allow for lysis to take place. After this time, the cell lysate plate was transferred to ice to set up for the RT-qPCR reactions. The lysates could also be frozen at −80° C. for later use.
To set up 10 uL RT-qPCR reactions, cell lysates were transferred to 384-well qPCR plates containing the master mix according to the table below. The plates were sealed, gently vortexed, and spun down before the run. The volumes were adjusted accordingly in some instances where the reaction was carried in 20 uL. The table below summarizes the components of the RT-qPCR reactions:
The RT-qPCR reaction was performed using a QuantStudio (ThermoFisher) under the following fast cycling conditions. […]

| IC50 [1] [nM] | IC50 [2] [nM] | IC50 [5] [nM] | SMILES | AC50 [3] [nM] | AC50 [4] [nM] |
| --- | --- | --- | --- | --- | --- |
| < 100 | 100 to 1000 | 100 to 1000 | Cc1cn2cc(NC(=O)c3ccc(N4CCC(N(C)C)CC4)c4ccnnc34)cc(F)c2n1 [Compound 137, 5-[4-(dimethylamino)piperidin-1-yl]-N-[8-fluoro-2-methylimidazo[1,2-a]pyridin-6-yl] cinnoline-8-carboxamide] | 100 to 1000 | 100 to 1000 |
| < 100 | 1000 to 10000 | 1000 to 10000 | Cc1cn2cc(NC(=O)c3ccc(N4CCC(NC(C)(C)C)CC4)c4ccnnc34)cc(F)c2n1 [Compound 138, 5-[4-(tert-butylamino)piperidin-1-yl]-N-[8-fluoro-2-methylimidazo[1,2-a]pyridin-6-yl]cinnoline-8-carboxamide] | 1000 to 10000 | 1000 to 10000 |
| < 100 | 1000 to 10000 | > 10000 | Cc1cn2cc(NC(=O)c3ccc(C4CCN(C)CC4)c4ccnnc34)cc(F)c2n1 [Compound 140, N-[8-fluoro-2-methylimidazo[1,2-a]pyridin-6-yl]-5-(1-methylpiperidin-4-yl) cinnoline-8-carboxamide] | 1000 to 10000 | 1000 to 10000 |
| < 100 | 1000 to 10000 | 1000 to 10000 | CCN1CCC(c2ccc(C(=O)Nc3cc(F)c4nc(C)cn4c3)c3nnccc23)CC1 [Compound 141, 5-(1-ethylpiperidin-4-yl)-N-[8-fluoro-2-methylimidazo[1,2-a]pyridin-6-yl] cinnoline-8-carboxamide] | 1000 to 10000 | 1000 to 10000 |
| 1000 to 10000 | 1000 to 10000 | 1000 to 10000 | Cc1cn2cc(NC(=O)c3ccc(N4C[C@H]5C[C@@H]4C5N(C)C)c4ccnnc34)cc(F)c2n1 (stereo partly drawn) [Compound 148, 5-[(1R,4R)-5-(dimethylamino)-2-azabicyclo [2.1.1]hexan-2-yl]-N-[8-fluoro-2-methylimidazo[1,2-a]pyridin-6-yl] cinnoline-8-carboxamide] | 1000 to 10000 | 1000 to 10000 |
| 100 to 1000 | > 10000 | > 10000 | Cc1cn2cc(NC(=O)c3ccc(N4C[C@H]5C[C@@H]4C5N(C)C)c4ccnnc34)cc(F)c2n1 (some centres unmarked) [Compound 155] | > 10000 | > 10000 |
| < 100 | 100 to 1000 | 1000 to 10000 | Cc1cn2cc(NC(=O)c3ccc(N4CCNC(C)C4)c4nccnc34)cc(F)c2n1 (centres unmarked) [Compound 157, N-[8-fluoro-2-methylimidazo[1,2-a]pyridin-6-yl]-8-(3-methylpiperazin-1-yl)quinoxaline-5-carboxamide] | 100 to 1000 | 100 to 1000 |
| < 100 | 100 to 1000 | 1000 to 10000 | Cc1cn2cc(NC(=O)c3ccc(N4CCC(N(C)C)CC4)c4nccnc34)cc(F)c2n1 [Compound 158, 8-[4-(dimethylamino)piperidin-1-yl]-N-[8-fluoro-2-methylimidazo[1,2-a]pyridin-6-yl] quinoxaline-5-carboxamide] | 100 to 1000 | 100 to 1000 |
| < 100 | 100 to 1000 | 1000 to 10000 | Cc1cc2c(N3CCNCC3)ccc(C(=O)Nc3cc(F)c4nc(C)cn4c3)c2nn1 [Compound 159] | 100 to 1000 | 100 to 1000 |

| SMILES | IC50 [1] [nM] | IC50 [2] [nM] | IC50 [5] [nM] | AC50 [3] [nM] | AC50 [4] [nM] |
| --- | --- | --- | --- | --- | --- |
| Cc1cn2cc(NC(=O)c3ccc(N(C)[C@@H]4C[C@H]5CC[C@@H](C4)N5)c4ccnnc34)cc(F)c2n1 [Compound 156, 5-[(exo)-8-azabicyclo[3.2.1]octan-3-yl(methyl)amino]-N-[8-fluoro-2-methylimidazo[1,2-a]pyridin-6-yl]cinnoline-8-carboxamide] | 100 to 1000 | > 10000 | > 10000 | > 10000 | > 10000 |
